Assay results published in patent publication US20190169218A1, “AMPHIPATHIC COMPOUND HAVING NOVEL PENTA-SACCHARIDE HYDROPHILIC GROUP AND USE THEREOF” (Industry-University Cooperation Foundation Hanyang …, priority 2016, published 2019).

Assays:
[1] = target: T1, boron transporter (BOR1) BOR1-GFP fusion protein (Arabidopsis thaliana, UniProt Q8VYR7); assay: solubilization (extraction) of BOR1-GFP fusion protein from membranes; conditions: amphipathic compound at 1.0 wt %
T1 construct: made in house; host or cells: Saccharomyces cerevisiae FGY217
Experimental: The ability of PSAs and PSEs to solubilize membrane proteins and to stabilize the structures of membrane proteins was evaluated using boron transporter (BOR1), a membrane protein. BOR1 was isolated from Arabidopsis thaliana, and was expressed in the form of a fusion protein having a GFP tag at the C-terminus in Saccharomyces cerevisiae FGY217 cells. This fusion protein has been proven to have boron transporting activity and is therefore involved in both structural and functional analysis of membrane proteins.
The ability of amphipathic compound PSAs and PSEs to solubilize the boron transporter (BOR1) membrane protein was evaluated.
Specifically, membranes containing BOR1-GFP fusion proteins were treated with an existing amphipathic compound (DDM), PSAs (PSA-C9, PSA-C10 and PSA-C11), or PSEs (PSE-C9, PSE-C11 and PSE-C13) at a concentration of 1.0 wt %. The solubilization efficiencies of PSA-C9, PSA-C10 and PSE-C9 were about 80% similar to the solubilization efficiency of DDM. In particular, the BOR1-GFP protein was quantitatively extracted (˜100%) using PSE-C11 having medium length chains, thus confirming that PSE-C11 is particularly useful for solubilization of BOR1-GFP.
Specifically, Arabidopsis thaliana-derived BOR1 was expressed in the form of a fusion protein having a GFP tag at the C-terminus in Saccharomyces cerevisiae FGY217 cells. The cells were grown in an URA-medium supplemented with 0.1% glucose. 2% galactose was added to the cell culture to induce protein expression and the cells were cultured at 20° C. for 18 hours (see Drew, D. et al., Nat. Protoc. 2008, 3, 784-798.). After culture, the cells were harvested and used to obtain the cell membranes (see Leung, J. et al., Protein Expr. Purif. 2010, 72, 139-146.). Membranes containing BOR1-GFP fusion proteins were diluted to a final total protein concentration of 2.8 mg/mL in PBS (pH7.4) supplemented with 1 wt % DDM, 1 wt % PSAs (PSA-C9, PSA-C10 or PSA-C11) or 1 wt % PSEs (PSE-C9, PSE-C11 or PSE-C13). The diluted samples were incubated at 4° C. for 1 hour with gentle shaking, and insoluble substances were removed by centrifugation at 14,000 g for 1 hour at 4° C. Supernatants containing the dissolved protein samples were incubated for 10 minutes at the specified temperature (35, 40, 45 or 50° C.), and strongly agglutinated proteins were removed by centrifugation at 14,000 g for 10 minutes at 4° C. 200 μL aliquots were taken from the supernatant and injected into a Superose 6 10/300 column equilibrated with 20 mM Tris-HCl (pH 7.5), 150 mM NaCl and 0.03% DDM. Each elution fraction was collected from a retention volume of 6.4 mL (i.e., after 6.4 mL of solution had passed), and added to a well of a clear bottom 96-well plate at a volume of 200 μL. GFP fluorescence generated in each fraction was measured using an excitation wavelength of 470 nm and an emission wavelength of 512 nm.

[2] = target: T2, human β2 adrenergic receptor (β2AR) (Homo sapiens, UniProt P07550); assay: extraction and solubilization of β2AR directly from cell membranes ([3H]-DHA activity, SEC); conditions: for SEC peak of extracted β2AR: buffer not containing amphipathic compounds
T2 construct: Flag; made in house
T2 sequence (P07550 whole entry): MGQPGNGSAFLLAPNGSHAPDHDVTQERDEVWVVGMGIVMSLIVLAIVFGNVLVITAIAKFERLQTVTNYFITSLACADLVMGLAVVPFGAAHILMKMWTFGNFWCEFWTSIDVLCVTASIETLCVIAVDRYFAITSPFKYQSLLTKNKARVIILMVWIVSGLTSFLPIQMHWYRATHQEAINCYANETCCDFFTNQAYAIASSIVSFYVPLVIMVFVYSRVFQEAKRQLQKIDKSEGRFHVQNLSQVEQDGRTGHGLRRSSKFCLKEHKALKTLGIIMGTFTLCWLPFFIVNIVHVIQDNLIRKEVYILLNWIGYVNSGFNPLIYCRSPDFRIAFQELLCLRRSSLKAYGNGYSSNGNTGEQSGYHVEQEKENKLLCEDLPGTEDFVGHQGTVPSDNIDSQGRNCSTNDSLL
Experimental: The best, PSE-C11, among tested PSAs/PSEs was used to extract β2ARs directly from the cell membranes. Receptors were treated with 1.0 wt % PSE-C11 or DDM, and the activity of the receptors solubilized in PSE-C11 or DDM was measured using a radiolabeled ligand, [^3H]-DHA.
Specifically, experiments to extract and solubilize receptors from the cell membranes were performed as follows. 10 mL of a PSE-C11 amphipathic compound buffer (20 mM HEPES (pH 7.5), 100 mM NaCl, 1.0 wt % PSE-C11) was added to 1 g of an insect cell (Sf9) pellet expressing β2ARs. The mixture was stirred for solubilization for 1 hour. After performing centrifugation at 12,000 g for 20 minutes, a supernatant was collected and loaded onto a M1 Flag column in the presence of 2 mM CaCl2. The column was washed with a PSE-C11 buffer (20 mM HEPES (pH 7.5), 100 mM NaCl, 0.2 wt % amphipathic compound). Receptors were eluted with 20×CMC PSE-C11, 5 mM EDTA and 0.2 mg/mL free Flag peptides. To measure the activity of the receptors solubilized and purified by DDM or PSE-C11, 0.2 pmol of β2ARs was incubated with […] [^3H]-DHA and each amphipathic compound at room temperature for 30 minutes, and the activity of β2ARs was measured. The following procedure was performed in the same manner as described in Example 9-3. Each measurement was performed three times. The receptors solubilized in 20×CMC PSE-C11 or 20×CMC DDM were also applied to SEC under a buffer (20 mM HEPES (pH 7.5), 100 mM NaCl) not containing an amphipathic compound (PSE-C11 or DDM).

SMILES: CCCCCCCCCCCOCC(COCCCCCCCCCCC)O[C@@H]1OC(CO[C@@H]2OC(CO)[C@@H](O)C(O)C2O)[C@@H](O[C@@H]2OC(CO)[C@@H](O)C(O)C2O)C(O[C@@H]2OC(CO)[C@@H](O)C(O)C2O)C1O[C@@H]1OC(CO)[C@@H](O)C(O)C1O (some centres unmarked) [PSE-C11]
- solubilization efficiency of BOR1-GFP [1]: ~100%
- activity of β2AR extracted from cell membranes ([3H]-DHA) ([2]; 1.0 wt % PSE-C11 or DDM): higher activity than proteins extracted by DDM
- SEC peak of extracted β2AR [2]: a distinct monodisperse peak

SMILES: CCCCCCCCCCCCO[C@@H]1O[C@H](CO)[C@@H](O[C@H]2O[C@H](CO)[C@@H](O)[C@H](O)[C@H]2O)[C@H](O)[C@H]1O [DDM, n-dodecyl-β-D-maltopyranoside, reference compound]
- solubilization efficiency of BOR1-GFP [1]: about 80%
- SEC peak of extracted β2AR [2]: no peak corresponding to the proteins was observed
